According to patent US8071548B2, “Method of reducing injury to mammalian cells” (Nono, Inc., priority 2002, dated 2011):

What was measured:
[1] = test system: transient middle cerebral artery occlusion; assay: Transient MCAO, post-treatment study (1 h after MCAO onset); format: in vivo, Sprague-Dawley rats; details: 3 nMole/g i.v. 1 h after MCAO onset
Protocol: (§1) Next, I examined whether pretreatment with Tat-peptides would reduce stroke damage. Experiments were carried out in adult male Sprague-Dawley rats subjected to transient middle cerebral artery occlusion (MCAO) for 90 minutes by the intraluminal suture method (36,37). Animals were fasted overnight and injected with atropine sulfate (0.5 mg/kg IP). After 10 minutes anesthesia was induced with 3.5% halothane in a mixture of nitrous oxide and oxygen (Vol. 2:1) and maintained with 0.8% halothane. Rats were orally intubated, mechanically ventilated, and paralyzed with pancuronium bromide (0.6 mg/kg IV). Body temperature was maintained at 36.5-37.5° C. with a heating lamp. Polyethylene catheters in the femoral artery and vein were used to continuously record blood pressure and to sample blood for gas and pH measurements. […] This produces an extensive infarction encompassing the cerebral cortex and basal ganglia. […] Physiological parameters (body temperature, blood pressure, blood gases) were monitored and maintained throughout the experiment (Table 1). All experimental manipulations and analyses of data were performed by individuals blinded to the treatment groups. The extent of cerebral infarction was measured 24 h after MCAO onset (FIG. 7C inset). The postural reflex test (38), and the forelimb placing test (39) were used to grade neurological function on a scale of 0 to 12 (normal=0; worst=12) during MCAO (at 50 minutes) and 24 h thereafter.
Next, I examined whether treatment with Tat-NR2B9c could attenuate ischemic neuronal damage in-vivo when given after stroke onset. […] Infarction volume and neurological outcome measurements were performed at times identical to the pre-treatment study. Body temperature, blood pressure and blood gases were monitored throughout the 24 h experiment and maintained equivalent between groups (Table 2).

[2] = Physiological variables in pre-treatment MCAO study; format: in vivo, Sprague-Dawley rats
Protocol: as §1

[3] = test system: transient middle cerebral artery occlusion; assay: Transient MCAO, pre-treatment study; format: in vivo, Sprague-Dawley rats
Protocol: as §1

[4] = test system: cortical neuronal cultures; assay: Sublethal stretch injury with or without NMDA, cell death in cortical cultures; format: cell-based
Protocol: […]. In brief, cerebral cortices from 10 to 12 embryos were incubated for 10 min in 0.05% trypsin-EDTA, dissociated by trituration, and plated on flexible membranes coated with poly-L-ornithine in 6 well plates (Flexcell International Corporation, Hillsborough, N.C.) at a density of 3.25×10^6 cells per well. Plating medium consisted of DMEM supplemented with 10% heat-inactivated horse serum (Gibco) and (in mM) 2 glutamine, 25 glucose, and 26 bicarbonate. The cultures were maintained at 37° C. in a humidified 5% CO2 atmosphere. After 3 days in vitro, growth of non-neuronal cells was halted by a 48 h exposure to 10 μM FDU-solution (5 μM uridine, 5 μM (+)-5-fluor-2′-deoxyuridine). This produces cultures in which >85% of the cells are neurons, based on immunohistochemical staining for glial fibrillary associated protein (exclusive to astrocytes), and for the NMDAR1 subunit (not shown). The cultures were used for experiments after 12-14 days in vitro.
The cultures, grown on silastic membranes as above, were placed in the Flexercell® FX-3000™ Strain Unit (Flexcell Int., Inc.), a computer-driven instrument that uses a vacuum pulse to deform the culture substrate. In all experiments, the cortical cultures were stretched to 130% of their original length for 1 s, inducing a sublethal injury as recently characterized by us (Arundine et al., 2003). The stretched neurons maintained cell membrane integrity, viability, and electrophysiological function.
Cell death was determined by serial quantitative measurements of propidium iodide (PI) fluorescence using a multiwell plate fluorescence scanner (Cytofluor II, PerSeptive Biosytems, Framingham, Mass., USA) as described previously (Sattler et al., 1997; Sattler et al., 1998). In brief, the culture medium in each tissue culture well was replaced with control solution containing 50 μg/ml PI, and a baseline fluorescence reading was taken. Sequential readings were then taken at appropriate intervals over the 20 h observation period. The fraction of dead cells in each culture at a given time was calculated as: Fraction dead=(Ft−Fo)/FNMDA Where Ft=PI fluorescence at time t, F0=initial PI fluorescence at time zero and FNMDA=background subtracted PI fluorescence of identical cultures from the same dissection and plating, 20-24 h after a 60 min exposure to 1 mM NMDA at 37° C. Based on manual observations at the time of validation of this technique, this NMDA exposure routinely produced near complete neuronal death in each culture but had no effect on surrounding glia (also see (Bruno et al., 1994; David et al., 1996; Sattler et al., 1997)). Adding Triton X-100 (0.1%) to cultures treated in this manner produced an additional 10-15% increase in PI fluorescence due to permeabilization of non-neuronal cell membranes, consistent with a 10-15% glial component in the cultures.
All experiments were performed at 37° C. Unless otherwise indicated, all solutions contained nimodipine (2 μM) and CNQX (10 μM) to restrict the actions of applied NMDA to NMDARs by preventing the secondary activation of other pathways (Sattler et al., 1998). In general, the cultures were washed ×2 with control solution and immediately stretched to 130% of their original length for 1 s. After the stretch, they were washed ×1 with control solution alone or challenged with an additional treatment (e.g., NMDA) and placed at 37° C. for 1 h. They were then washed ×1 with control solution and then with control solution containing 50 μg/ml PI to obtain a baseline reading. In pilot studies, baseline readings obtained at this stage were similar to those obtained by staining the cells with PI prior to stretch. As the stretch causes splashing of the bath solution, staining with PI after stretch reduced biohazard potential and artifacts associated with PI outside the culture well. Unstretched controls were manipulated identically to stretched cultures.

Tat-KLSSIESDV [Tat-NR2B9c]
24 h neurological scores [1]: significant improvement
reduction in cortical infarction volume ([1]; 24 h): 86.97±4.38%
reduction of volume of total cerebral infarction ([1]; 24 h, vs controls): 67.0±3.75%
Body Temperature ([2]; After MCAo (15 min)): 36.8 ± 0.12 °C
Body Temperature ([2]; After MCAo (24 hr)): 36.5 ± 0.14 °C
Body weight ([2]; After MCAo (24 hr)): 250 ± 5 g
Body Temperature ([2]; Before MCAo(15 min)): 36.7 ± 0.20 °C
MABP ([2]; Before MCAo(15 min)): 90 ± 6 mmHg
Blood gases PCO2 ([2]; Before MCAo(30 min)): 38.1 ± 1.4 mmHg
Blood gases PH ([2]; Before MCAo(30 min)): 7.44 ± 0.02
Blood gases PO2 ([2]; Before MCAo(30 min)): 123 ± 8 mmHg
Body Temperature ([2]; Before MCAo(30 min)): 36.7 ± 0.19 °C
MABP ([2]; Before MCAo(30 min)): 76 ± 5 mmHg
Body Temperature ([2]; Before MCAo(45 min)): 36.6 ± 0.21 °C
MABP ([2]; Before MCAo(45 min)): 120 ± 9 mmHg
Body weight ([2]; Before anesthesia): 271 ± 5 g
Blood gases PCO2 ([2]; During MCAo (5 min)): 41.0 ± 1.3 mmHg
Blood gases PH ([2]; During MCAo (5 min)): 7.44 ± 0.02
Blood gases PO2 ([2]; During MCAo (5 min)): 112 ± 6 mmHg
Body Temperature ([2]; During MCAo (5 min)): 36.7 ± 0.16 °C
MABP ([2]; During MCAo (5 min)): 112 ± 9 mmHg
Body Temperature ([2]; During MCAo (15 min)): 36.8 ± 0.23 °C
MABP ([2]; During MCAo (15 min)): 98 ± 6 mmHg
reduction in cortical infarction ([3]; 3 nMoles/g i.v. 45 min prior to MCAO, 24 h after MCAO onset): 70.7±11.23%
reduction of volume of total cerebral infarction ([3]; 3 nMoles/g i.v. 45 min prior to MCAO, 24 h after MCAO onset, vs controls): 54.6±11.27%
24 h neurological scores ([3]; 3 nMoles/g i.v. bolus 45 min prior to MCAO): trend toward improvement
toxic effects in control or stretched cultures ([4]; 50 nM): no toxic effects
heightened vulnerability of stretched cultures to NMDA toxicity, pre-treatment ([4]; 50 nM 30 min prior to stretch, NMDA 30 μM 1 h, cell death at 20 h): completely abolished
enhanced cell mortality in stretched neurons by NMDA challenge, post-treatment ([4]; 50 nM applied after terminating the 1 h NMDA challenge): reduced the enhanced cell mortality
